The results in this text go back to patent publication US9815842B2, “Pyrazolo pyrimidine derivatives and their use as MALT1 inhibitors” (Novartis AG, priority 2014, dated 2017).

For one assay, the system named is Human IL2 promoter. Kind of assay: Human IL2 promoter reporter gene assay (RGA) in Jurkat cells. It counts as cell-based. The note with it: Jurkat clone K22 290_H23, anti-CD28 mAb + PMA stimulation 5.5 h. The method, then: Human IL2 Promoter Reporter Gene Assay (RGA) in Jurkat Cells
The transfected Jurkat clone K22 290_H23 was propagated in RPMI 1640 supplemented with 10% heat inactivated fetal calf serum, 50 μM 2-mercaptoethanol and 1 mg/ml Geneticin. The cell concentration should not exceed 1×10e6/ml during culturing. The cells should not exceed passage 30. Prior to the assay the cells were washed and prepared to the concentration of 2×10e6 cells/ml.
Compound dilutions were made as 2×-concentrated solutions then diluted 1/2 by addition to cells. Two hundred and fifty μl of compound dilution and 250 μl of cells were mixed together in wells of a 96-deep well plate. Cells/compounds premix were incubated 30 min at 37° C. and 5% CO2 directly in the deep well plate.
After pre-incubation of cells with compounds, cells were stimulated with anti-CD28 mAb (clone 15E8) at 3 μg/ml+PMA at 1 μg/ml. Both co-stimulants were diluted in culture medium at a 10×-concentrated solution. 10 μl of co-stimulants were pipetted into the white 96-well plates and 100 μl of cell/compound mix was immediately added in duplicates. The cells were stimulated for 5.5 h at 37° C. and 5% CO2.
After cell stimulation, 50 μl of BriteLitePlus reagent (Perkin Elmer) was added to each well and the bioluminescence was measured with a Wallac EnVision reader (Perkin Elmer).

Assay [1] concerns the target C-domain of MALT1 (amino acids 329-824) (Homo sapiens (Human), UniProt Q9UDY8). Nature of the assay: MALT1 biochemical assay (fluorescence lifetime enzyme activity assay). The note with it: 60 min pre-incubation, 2.5 nM enzyme, 1 μM peptide substrate. The method, then: The readout parameter is the increase of fluorescence lifetime over time, proportional to enzyme activity.
The assay employs a short peptide substrate labeled with the single fluorophore PT14 as a fluorescence lifetime probe sensitive to the cleavage state of the substrate (PT14: 6-(9-oxo-9H-acridin-10-yl)-hexanoate, AssayMetrics, UK). […] The assay buffer consists of 200 mM Tris/HCl at pH 7.5, 0.8 M Na citrate, 100 μM EGTA, 100 μM DTT and 0.05% (w/v) CHAPS. […] Test compounds were dissolved in 100% (v/v) DMSO or a mixture containing 90% (v/v) DMSO and 10% (v/v) H2O at a stock concentration of 100 mM. Serial dilutions of test compounds were prepared using either 100% (v/v) DMSO or a mixture containing 90% (v/v) DMSO and 10% (v/v) H2O.

C-domain of MALT1 (amino acids 329-824), sequence (Q9UDY8 329-824): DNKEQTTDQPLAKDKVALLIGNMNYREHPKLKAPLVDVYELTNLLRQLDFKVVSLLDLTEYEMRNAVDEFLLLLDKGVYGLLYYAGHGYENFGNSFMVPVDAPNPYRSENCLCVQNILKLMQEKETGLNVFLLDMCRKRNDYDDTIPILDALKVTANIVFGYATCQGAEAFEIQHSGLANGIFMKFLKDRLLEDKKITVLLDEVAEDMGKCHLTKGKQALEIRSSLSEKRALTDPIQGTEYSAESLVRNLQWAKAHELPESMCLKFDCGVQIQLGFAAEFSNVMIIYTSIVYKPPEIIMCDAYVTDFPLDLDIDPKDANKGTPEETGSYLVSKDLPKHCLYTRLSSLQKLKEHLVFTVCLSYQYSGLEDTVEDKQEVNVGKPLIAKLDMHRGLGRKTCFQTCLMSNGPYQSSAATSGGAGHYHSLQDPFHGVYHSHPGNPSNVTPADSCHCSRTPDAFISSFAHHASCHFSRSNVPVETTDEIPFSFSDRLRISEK

`CO[C@@H](C)c1c(NC(=O)Nc2ccnc(C(F)(F)F)c2)cnc2cc(F)nn12` [Example 7, (S)-1-(2-fluoro-7-(1-methoxyethyl)pyrazolo[1,5-a]pyrimidin-6-yl)-3-(2-(trifluoromethyl)pyridin-4-yl)urea]: the IC50 turned out to be 30 nM with Human IL2 promoter and 8 nM in assay [1]. For `CO[C@@H](C)c1c(NC(=O)Nc2cncc(C#N)c2)cnc2cc(Cl)nn12` [Example 8, (S)-1-(2-chloro-7-(1-methoxyethyl)pyrazolo[1,5-a]pyrimidin-6-yl)-3-(5-cyanopyridin-3-yl)urea], the IC50 with Human IL2 promoter is 33 nM.

As to `CO[C@@H](C)c1c(NC(=O)Nc2cnc(-n3nccn3)c(Cl)c2)cnc2cc(Cl)nn12` [Example 10, (S)-1-(5-chloro-6-(2H-1,2,3-triazol-2-yl)pyridin-3-yl)-3-(2-chloro-7-(1-methoxyethyl)pyrazolo[1,5-a]pyrimidin-6-yl)urea], the 50% inhibitory concentration (IC50) in the assay on Human IL2 promoter was found to be 19 nM.

With `CC(C)c1c(NC(=O)Nc2cnc(-n3nccn3)c(Cl)c2)cnc2cc(Cl)nn12` [Example 21, 1-(5-chloro-6-(2H-1,2,3-triazol-2-yl)pyridin-3-yl)-3-(2-chloro-7-isopropylpyrazolo[1,5-a]pyrimidin-6-yl)urea], in the assay with Human IL2 promoter, the 50% inhibitory concentration (IC50) is 104 nM. As to `CC(C)c1c(NC(=O)Nc2cnc(-c3ccnn3C)c(Cl)c2)cnc2cc(Cl)nn12` [Example 29, 1-(5-chloro-6-(1-methyl-1H-pyrazol-5-yl)pyridin-3-yl)-3-(2-chloro-7-isopropylpyrazolo[1,5-a]pyrimidin-6-yl)urea], in assay [1], the IC50 came to 370 nM. As to `CO[C@H](C)c1c(NC(=O)Nc2cnc(-n3nccn3)c(Cl)c2)cnc2cc(Cl)nn12` [Example 46, (R)-1-(5-chloro-6-(2H-1,2,3-triazol-2-yl)pyridin-3-yl)-3-(2-chloro-7-(1-methoxyethyl)pyrazolo[1,5-a]pyrimidin-6-yl)urea], the concentration for half-maximal inhibition (IC50) in the assay on Human IL2 promoter was 82 nM. Still for that read-out and setting: the value for `O=C(Nc1cnc(-n2nccn2)c(Cl)c1)Nc1cnc2cc(Cl)nn2c1C1CCOCC1` [Example 58, 1-(5-chloro-6-(2H-1,2,3-triazol-2-yl)pyridin-3-yl)-3-(2-chloro-7-(tetrahydro-2H-pyran-4-yl)pyrazolo[1,5-a]pyrimidin-6-yl)urea] was 267 nM. Consider `CO[C@@H](C)c1c(NC(=O)Nc2cnc(-n3nccn3)c(C(F)F)c2)cnc2cc(Cl)nn12` [Example 89, (S)-1-(2-chloro-7-(1-methoxyethyl)pyrazolo[1,5-a]pyrimidin-6-yl)-3-(5-(difluoromethyl)-6-(2H-1,2,3-triazol-2-yl)pyridin-3-yl)urea], for which the IC50 in the assay with Human IL2 promoter was 46 nM; in assay [1], 3 nM. For `CO[C@@H](C)c1c(NC(=O)Nc2ccnc(C(F)F)c2)cnc2cc(Cl)nn12` [Example 92, (S)-1-(2-chloro-7-(1-methoxyethyl)pyrazolo[1,5-a]pyrimidin-6-yl)-3-(2-(difluoromethyl)pyridin-4-yl)urea], in that order: 46 nM and 9 nM. Regarding `CO[C@@H](C)c1c(NC(=O)Nc2cnc(OC(F)F)c(Cl)c2)cnc2cc(Cl)nn12` [Example 93, (S)-1-(5-chloro-6-(difluoromethoxy)pyridin-3-yl)-3-(2-chloro-7-(1-methoxyethyl)pyrazolo[1,5-a]pyrimidin-6-yl)urea], the IC50 in the assay with Human IL2 promoter amounted to 157 nM; in assay [1], 1 nM. `CO[C@@H](C)c1c(NC(=O)Nc2cnc(-n3nccn3)c(C(F)(F)F)c2)cnc2cc(F)nn12` [Example 94, (S)-1-(6-(2H-1,2,3-triazol-2-yl)-5-(trifluoromethyl)pyridin-3-yl)-3-(2-fluoro-7-(1-methoxyethyl)pyrazolo[1,5-a]pyrimidin-6-yl)urea]: the IC50 in the assay with Human IL2 promoter is 16 nM; in assay [1], 2 nM. For the compound `CO[C@@H](C)c1c(NC(=O)Nc2cnc(-n3nccn3)c(Cl)c2)cnc2cc(F)nn12` [Example 95, (S)-1-(5-chloro-6-(2H-1,2,3-triazol-2-yl)pyridin-3-yl)-3-(2-fluoro-7-(1-methoxyethyl)pyrazolo[1,5-a]pyrimidin-6-yl)urea], the IC50 in the assay on Human IL2 promoter was determined as 13 nM; in assay [1], 2 nM. For the compound `CO[C@@H](C)c1c(NC(=O)Nc2cnc(-n3nccn3)c(Cl)c2)cnc2cc(C#N)nn12` [Example 96, (S)-1-(5-chloro-6-(2H-1,2,3-tirazol-2-yl)pyridin-3-yl)-3-(2-cyano-7-(1-methoxyethyl)pyrazolo[1,5-a]pyrimidin-6-yl)urea], the IC50 with Human IL2 promoter stood at 49 nM; in assay [1], 10 nM. For `COCCO[C@@H](C)c1c(NC(=O)Nc2cnc(OC(F)F)c(Cl)c2)cnc2cc(Cl)nn12` [Example 97, (S)-1-(5-chloro-6-(difluoromethoxy)pyridin-3-yl)-3-(2-chloro-7-(1-(2-methoxyethoxy)ethyl)pyrazolo[1,5-a]pyrimidin-6-yl)urea] the same measures were 68 nM and 3 nM. In the case of `CO[C@H](c1c(NC(=O)Nc2cnc(-n3nccn3)c(Cl)c2)cnc2cc(Cl)nn12)[C@@H](C)OC` [Example 98, 1-(5-chloro-6-(2H-1,2,3-triazol-2-yl)pyridin-3-yl)-3-(2-chloro-7-((1R,2R)-1,2-dimethoxypropyl)pyrazolo[1,5-a]pyrimidin-6-yl)urea], the IC50 with Human IL2 promoter turned out to be 44 nM.

In the case of `CO[C@@H](C)c1c(NC(=O)Nc2cc(Cl)cnc2OCCN(C)C)cnc2cc(Cl)nn12` [Example 99, (S)-1-(5-chloro-2-(2-(dimethylamino)ethoxy)pyridin-3-yl)-3-(2-chloro-7-(1-methoxyethyl)pyrazolo[1,5-a]pyrimidin-6-yl)urea], the half-inhibitory concentration (IC50) in the assay on Human IL2 promoter was 41 nM; in assay [1] it was 21 nM. On to `C[C@H](O[C@@H]1CCOC1)c1c(NC(=O)Nc2cnc(-n3nccn3)c(Cl)c2)cnc2cc(Cl)nn12` [Example 100, 1-(5-chloro-6-(2H-1,2,3-triazol-2-yl)pyridin-3-yl)-3-(2-chloro-7-((S)-1-(((R)-tetrahydrofuran-3-yl)oxy)ethyl)pyrazolo[1,5-a]pyrimidin-6-yl)urea], for which the results for the IC50 (with Human IL2 promoter; in assay [1]) were 84 nM and 19 nM, respectively. For `C[C@H](O[C@H]1CCOC1)c1c(NC(=O)Nc2cnc(-n3nccn3)c(Cl)c2)cnc2cc(Cl)nn12` [Example 101, 1-(5-chloro-6-(2H-1,2,3-triazol-2-yl)pyridin-3-yl)-3-(2-chloro-7-((S)-1-(((S)-tetrahydrofuran-3-yl)oxy)ethyl)pyrazolo[1,5-a]pyrimidin-6-yl)urea] the same measures were 25 nM and 5 nM. On to `C[C@H](OC[C@H]1CCOC1)c1c(NC(=O)Nc2cnc(-n3nccn3)c(Cl)c2)cnc2cc(Cl)nn12` [Example 102, 1-(5-chloro-6-(2H-1,2,3-triazol-2-yl)pyridin-3-yl)-3-(2-chloro-7-((S)-1-(((S)-tetrahydrofuran-3-yl)methoxy)ethyl)pyrazolo[1,5-a]pyrimidin-6-yl)urea], for which the IC50 amounted to 14 nM in the assay with Human IL2 promoter and 3 nM in assay [1]. For `C[C@H](OC[C@@H]1CCOC1)c1c(NC(=O)Nc2cnc(-n3nccn3)c(Cl)c2)cnc2cc(Cl)nn12` [Example 103, 1-(5-chloro-6-(2H-1,2,3-triazol-2-yl)pyridin-3-yl)-3-(2-chloro-7-((S)-1-(((R)-tetrahydrofuran-3-yl)methoxy)ethyl)pyrazolo[1,5-a]pyrimidin-6-yl)urea], the 50% inhibitory concentration (IC50) came out at 50 nM in the assay on Human IL2 promoter and 5 nM in assay [1]. For `Cc1cc2ncc(NC(=O)Nc3cnc(-n4nccn4)c(Cl)c3)c(C3(C)CCCO3)n2n1` (stereo not shown) [Example 104, 1-(5-chloro-6-(2H-1,2,3-triazol-2-yl)pyridin-3-yl)-3-(2-methyl-7-(2-methyltetrahydrofuran-2-yl)pyrazolo[1,5-a]pyrimidin-6-yl)urea] the same measures were 24 nM and 2 nM.

`CO[C@@H](C)c1c(NC(=O)Nc2ccnc(C#N)c2)cnc2cc(Cl)nn12` [Example 105, (S)-1-(2-chloro-7-(1-methoxyethyl)pyrazolo[1,5-a]pyrimidin-6-yl)-3-(2-cyanopyridin-4-yl)urea]: the IC50 in the assay on Human IL2 promoter was 59 nM; in assay [1] it was 11 nM.

`COCC1(c2c(NC(=O)Nc3cncc(C(F)(F)F)c3)cnc3cc(Cl)nn23)CCCO1` (stereo not shown) [Example 106, 1-(2-chloro-7-(2-(methoxymethyl)tetrahydrofuran-2-yl)pyrazolo[1,5-a]pyrimidin-6-yl)-3-(5-(trifluoromethyl)pyridin-3-yl)urea]: the IC50 in the assay with Human IL2 promoter worked out at 484 nM; in assay [1], 8 nM. Regarding `O=C(Nc1cnc(-n2nccn2)c(Cl)c1)Nc1cnc2cc(Cl)nn2c1C1COCCN1` (stereo not shown) [Example 123, 1-(5-chloro-6-(2H-1,2,3-triazol-2-yl)pyridin-3-yl)-3-(2-chloro-7-(morpholin-3-yl)pyrazolo[1,5-a]pyrimidin-6-yl)urea], the IC50 in the assay with Human IL2 promoter was 199 nM.
